Measurements as given in patent US11470846B2, “Herbicidal pyridino-/pyrimidino-thiazoles” (SYNGENTA PARTICIPATIONS AG, priority 2014, dated 2022).

How the values were obtained:
Type in all cases: in vivo
Oryza sativa (ORYSA) [1] = test: Pre-emergence herbicidal activity; details: pre-emergence application, 1000 g/Ha, evaluated after 13 days, scale 0-5
Protocol: (§1) B1 Pre-Emergence Herbicidal Activity
(§2) Seeds of a variety of test species were sown in standard soil in pots: Triticum aestivium (TRZAW), Oryza sativa (ORYSA), Avena fatua (AVEFA), Alopecurus myosuroides (ALOMY), Echinochloa crus-galli (ECHCG), Lolium perenne (LOLPE), Zea Mays (ZEAMX), Abutilon theophrasti (ABUTH), Amaranthus retroflexus (AMARE) and Setaria faberi (SETFA). After cultivation for one day (pre-emergence) under controlled conditions in a glasshouse (at 24/16° C., day/night; 14 hours light; 65% humidity), the plants were sprayed with an aqueous spray solution derived from the formulation of the technical active ingredient in acetone/water (50:50) solution containing 0.5% Tween 20 (polyoxyethelyene sorbitan monolaurate, CAS RN 9005-64-5). The test plants were then grown in a glasshouse under controlled conditions (at 24/16° C., day/night; 14 hours light; 65% humidity) and watered twice daily. After 13 days, the test was evaluated (5=total damage to plant; 0=no damage to plant).

Lolium perenne (LOLPE) [2] = test: Pre-emergence herbicidal activity; details: pre-emergence application, 1000 g/Ha, evaluated after 13 days, scale 0-5; Table 5
Protocol: as §1, §2

[3] = test system: Triticum aestivium (TRZAW); test: Pre-emergence herbicidal activity; details: pre-emergence application, 1000 g/Ha, evaluated after 13 days, scale 0-5
Protocol: as §1, §2

Avena fatua (AVEFA) [4] = test: Pre-emergence herbicidal activity; details: pre-emergence application, 1000 g/Ha, evaluated after 13 days, scale 0-5
Protocol: as §1, §2

[5] = test system: Echinochloa crus-galli (ECHCG); test: Pre-emergence herbicidal activity; details: pre-emergence application, 1000 g/Ha, evaluated after 13 days, scale 0-5; Table 5
Protocol: as §1, §2

[6] = test system: Alopecurus myosuroides (ALOMY); test: Pre-emergence herbicidal activity; details: pre-emergence application, 1000 g/Ha, evaluated after 13 days, scale 0-5
Protocol: as §1, §2

Oryza sativa (ORYSA) [7] = test: Post-emergence herbicidal activity; details: post-emergence application, 1000 g/Ha, evaluated after 13 days, scale 0-5
Protocol: (§3) B2 Post-Emergence Herbicidal Activity
(§4) Seeds of a variety of test species were sown in standard soil in pots: Triticum aestivium (TRZAW), Oryza sativa (ORYSA), Avena fatua (AVEFA), Alopecurus myosuroides (ALOMY), Echinochloa crus-galli (ECHCG), Lolium perenne (LOLPE), Zea Mays (ZEAMX), Abutilon theophrasti (ABUTH), Amaranthus retroflexus (AMARE) and Setaria faberi (SETFA). After 8 days cultivation (post-emergence) under controlled conditions in a glasshouse (at 24/16° C., day/night; 14 hours light; 65% humidity), the plants were sprayed with an aqueous spray solution derived from the formulation of the technical active ingredient in acetone/water (50:50) solution containing 0.5% Tween 20 (polyoxyethelyene sorbitan monolaurate, CAS RN 9005-64-5). The test plants were then grown in a glasshouse under controlled conditions (at 24/16° C., day/night; 14 hours light; 65% humidity) and watered twice daily. After 13 days, the test was evaluated (5=total damage to plant; 0=no damage to plant).

Lolium perenne (LOLPE) [8] = test: Post-emergence herbicidal activity; details: post-emergence application, 1000 g/Ha, evaluated after 13 days, scale 0-5; Table 7
Protocol: as §3, §4

[9] = test system: Triticum aestivium (TRZAW); test: Post-emergence herbicidal activity; details: post-emergence application, 1000 g/Ha, evaluated after 13 days, scale 0-5
Protocol: as §3, §4

Avena fatua (AVEFA) [10] = test: Post-emergence herbicidal activity; details: post-emergence application, 1000 g/Ha, evaluated after 13 days, scale 0-5
Protocol: as §3, §4

[11] = test system: Echinochloa crus-galli (ECHCG); test: Post-emergence herbicidal activity; details: post-emergence application, 1000 g/Ha, evaluated after 13 days, scale 0-5; Table 7
Protocol: as §3, §4

[12] = test system: Alopecurus myosuroides (ALOMY); test: Post-emergence herbicidal activity; details: post-emergence application, 1000 g/Ha, evaluated after 13 days, scale 0-5
Protocol: as §3, §4

Structure (SMILES) | Control of weed species, ORYSA (damage score) (Oryza sativa (ORYSA) [1]) | Control of weed species, LOLPE (damage score) (Lolium perenne (LOLPE) [2]) | Control of weed species, TRZAW (damage score) [3] | Control of weed species, AVEFA (damage score) (Avena fatua (AVEFA) [4]) | Control of weed species, ECHCG (damage score) [5] | Control of weed species, ALOMY (damage score) [6] | Control of weed species, ORYSA (damage score) (Oryza sativa (ORYSA) [7]) | Control of weed species, LOLPE (damage score) (Lolium perenne (LOLPE) [8]) | Control of weed species, TRZAW (damage score) [9] | Control of weed species, AVEFA (damage score) (Avena fatua (AVEFA) [10]) | Control of weed species, ECHCG (damage score) [11] | Control of weed species, ALOMY (damage score) [12]
Cc1nc(-c2cccnc2)sc1N(C)C(=O)OC(C)(C)C [Compound A1, tert-butyl N-methyl-N-[4-methyl-2-(3-pyridyl)thiazol-5-yl]carbamate] | 2 | 2 | 2 | 4 | 4 | 2 | 1 | 4 | 0 | 4 | 4 | 0
Cc1nc(-c2cncnc2)sc1N(C)C(=O)OC(C)(C)C [Compound A2, tert-butyl N-methyl-N-(4-methyl-2-pyrimidin-5-yl-thiazol-5-yl)carbamate] | 1 | 2 | 0 | 3 | 5 | 0 | 1 | 3 | 1 | 5 | 5 | 1
Cc1nc(-c2cncc(F)c2)sc1N(C)C(=O)OC(C)(C)C [Compound A3, tert-butyl N-[2-(5-fluoro-3-pyridyl)-4-methyl-thiazol-5-yl]-N-methyl-carbamate] | 1 | 2 | 1 | 3 | 4 | 1 | 1 | 3 | 1 | 4 | 5 | 1
Cc1nc(-c2cncc(Cl)c2)sc1N(C)C(=O)OC(C)(C)C [Compound A4] | 0 | 2 | 0 | 4 | 4 | 1 | 1 | 2 | 1 | 5 | 4 | 0
Cc1nc(-c2cncc(C=O)c2)sc1N(C)C(=O)OC(C)(C)C [Compound A5] | 0 | 0 | 0 | 0 | 0 | 0 | 0 | 0 | 0 | 0 | 0 | 0
COc1cncc(-c2nc(C)c(N(C)C(=O)OC(C)(C)C)s2)c1 [Compound A6] | 1 | 1 | 0 | 0 | 2 | 1 | 0 | 2 | 1 | 2 | 4 | 1
Cc1nc(-c2cncc(C#N)c2)sc1N(C)C(=O)OC(C)(C)C [Compound A7] | 1 | 2 | 1 | 4 | 2 | 1 | 1 | 3 | 2 | 4 | 5 | 1
Cc1nc(-c2cncc(C(N)=O)c2)sc1N(C)C(=O)OC(C)(C)C [Compound A8] | 0 | 0 | 0 | 0 | 0 | 0 | 1 | 0 | 2 | 2 | 3 | 1
Cc1nc(-c2cncc(S(C)(=O)=O)c2)sc1N(C)C(=O)OC(C)(C)C [Compound A9] | 0 | 0 | 0 | 0 | 0 | 0 | 1 | 1 | 2 | 2 | 2 | 1
Cc1nc(-c2cncc(C(F)(F)F)c2)sc1N(C)C(=O)OC(C)(C)C [Compound A10] | 1 | 1 | 1 | 1 | 1 | 0 | 1 | 0 | 1 | 2 | 4 | 0
Cc1nc(-c2cncc(F)c2)sc1NC(=O)OC(C)(C)C [Compound A35, tert-butyl N-[2-(5-fluoro-3-pyridyl)-4-methyl-thiazol-5-yl]carbamate] | – | – | – | – | – | – | 0 | 0 | 1 | 1 | 2 | 0
Cc1nc(-c2cccnc2)sc1N(C)C(=O)Oc1ccc([N+](=O)[O-])cc1 [Compound A61, (4-nitrophenyl) N-methyl-N-[4-methyl-2-(3-pyridyl)thiazol-5-yl]carbamate] | – | – | – | – | – | – | 0 | 1 | 1 | 2 | 1 | 0
